According to patent US10952432B2, “Cannabidiol compositions and uses thereof” (PHARMOTECH SA, priority 2016, dated 2021):

Legend:
[1] = tested on: methicillin-resistant Staphylococcus aureus (MRSA) strains; settings: Appendino et al., 2008; cited from earlier work
[2] = tested on: elastase produced by P. aeruginosa PAOW1(PT5); test: Elastase production measured by Elastin Congo Red enzymatic activity; assay type: cell-based, Pseudomonas aeruginosa; settings: CBD 500 μg/ml, overnight culture of wt strain, absorption at 495 nm normalized to cell density
Procedure: Elastase production was measured in two bacterial strains: Pseudomonas aeruginosa PAOW1(PT5) that is a wild type (wt) and Pseudomonas aeruginosa ΔlasIΔrhlI that is a mutant for quorum sensing signaling that has reduced production/expression of elastase due to the inhibition of the quorum sensing system. […] Insoluble ECR was removed by centrifugation and the absorption of the supernatant was measured at 495 nm and normalized according to cell density.

[3] = tested on: Pseudomonas aeruginosa ATCC 27853; test: Biofilm formation, crystal violet staining; assay type: cell-based
Procedure: Overnight pre-cultures of Pseudomonas aeruginosa ATCC 27853 strain were diluted to an OD600 (optical density measured at a wavelength of 600 nm) of 0.1 in 2 ml of LB (lysogeny broth) medium into polypropylene tubes. […] Planktonic cells were removed by washing once with distilled water and biofilms were stained with crystal violet (CV, 1% in water) for 30 minutes. CV was discarded and tubes were rinsed twice with water to remove excess of dye. The stained biofilms were re-suspended in 33% acetic acid and their density was evaluated by measuring the OD600 of the suspensions normalized for bacterial density.

CB2 receptors = CB2 receptors (Homo sapiens, UniProt P34972); settings: compared with THC; cited from earlier work
Chain of CB2 receptors (P34972 whole entry): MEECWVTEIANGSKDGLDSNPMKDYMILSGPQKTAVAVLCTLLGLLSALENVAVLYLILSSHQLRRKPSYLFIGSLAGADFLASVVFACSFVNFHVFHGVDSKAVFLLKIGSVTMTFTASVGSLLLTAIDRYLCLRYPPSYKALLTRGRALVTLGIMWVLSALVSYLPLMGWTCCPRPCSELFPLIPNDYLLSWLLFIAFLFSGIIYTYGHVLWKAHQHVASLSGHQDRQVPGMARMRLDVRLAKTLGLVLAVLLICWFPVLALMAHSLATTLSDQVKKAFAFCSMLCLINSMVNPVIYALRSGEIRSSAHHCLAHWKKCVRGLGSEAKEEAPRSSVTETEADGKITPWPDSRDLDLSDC

C=C(C)[C@@H]1CCC(C)=C[C@H]1c1c(O)cc(O)cc1CCCCC [abn-CBD, reference compound]
activity against a variety of MRSA strains [1]: having activity

C=C(C)[C@@H]1CCC(C)=C[C@H]1c1c(O)cc(CCCCC)cc1O [CBD, 2-[(1R,6R)-6-isopropenyl-3-methylcyclohex-2-en-1-yl]-5-pentylbenzene-1,3-diol]
activity against a variety of MRSA strains [1]: having activity | reduction of the production of elastase as compared to control [2]: about 30% | reduction of biofilm formation by a factor, as compared to control without CBD ([3]; CBD 1.9 μg/ml to 31.25 μg/ml, 12 h at 37° C., LB medium, OD600 normalized for bacterial density): about 2 | inhibitory effect on biofilm formation at higher concentration ([3]; higher concentration of CBD (62.5 and 125 μg/ml tested), probably due to reduced solubility in culture medium): inhibitory effect on biofilm formation is reduced | affinity for CB2 receptors (CB2 receptors): very low affinity
